Plant response rating data for one compound are collected here from patent publication US10202361B2, “Pyridazinones as herbicides” (E I DU PONT DE NEMOURS AND COMPANY, priority 2014, dated 2019).

Assay [1] concerns barley (winter barley, Hordeum vulgare). Description: Test C postemergence greenhouse herbicide test. Type of assay: in vivo.
Assay [2] has as its system canarygrass (Phalaris minor). Description: Test C postemergence greenhouse herbicide test. Type of assay: in vivo.

As to `Cc1cc(=O)n(-c2ccc(F)cc2)nc1Oc1ccnc(C(F)(F)F)c1` [Compound 14, 2-(4-fluorophenyl)-5-methyl-6-[[2-(trifluoromethyl)-4-pyridinyl]oxy]-3 (2H)-pyridazinone], the Plant response rating in assay [1] (31 g ai/ha) is reported as 5; in assay [1] (62 g ai/ha), 5; in assay [1] (125 g ai/ha), 10; in assay [1] (250 g ai/ha), 25; in assay [2] (31 g ai/ha) it was 5; in assay [2] (62 g ai/ha) it was 5. For the same compound, the Plant response rating in assay [2] (125 g ai/ha) was 10; in assay [2] (250 g ai/ha) it was 15.
